Results: US20040147531A1, “Amidine derivatives for treating amyloidosis” (priority 2001, published 2004)

Assays:
Parameters in all cases: key: “+” = active; “−” = inactive; “pr” = promoting
Aβ [1] = molecular target: T1, Aβ (Homo sapiens, UniProt P05067); experiment: electron microscopy (EM) assay, inhibition of fibrillogenesis; assay type: biochemical; settings: soluble Aβ
T1 construct: Aβ peptide: Aβ (1-40) 95% purity (American Peptide Company, Inc, Sunnyvale, Calif. USA)
From the text: (§1) Test compounds were purchased from commercial sources or synthesized and screened by thioflavin T fluorescent assay (“ThT assay”). Alternatively, one could screen test compounds by circular dichroism (“CD”), electron microscopy (“EM”), or mass spectroscopy (“MS”) assays. The MS assay gives data on the ability of compounds to bind to an amyloid protein, whereas the ThT, EM, and CD assays give data on inhibition of fibrillogenesis.
Similarly, in the electron microscopy (“EM”) assay, each sample was sonicated for 1 min to disrupt large clumps before testing. The sample (5-μL aliquot) was placed on freshly cleaved mica and allowed to air dry. The mica was placed in a Balzers High-vacuum, Freeze-Etch Unit (model 301), shadowed with platinum (30° angle), and coated with a carbon film. The replica was removed from the mica by flotation and transferred onto a 300-mesh copper grid. Samples were examined using a Joel 2000 FX transmission electron microscope. […]

Aβ [2] = molecular target: T1, Aβ; experiment: circular dichroism (CD) assay, inhibition of fibrillogenesis; assay type: biochemical; settings: soluble Aβ, 37° C., 190-240 nm
From the text: as §1
In the circular dichroism (“CD”) assay, samples were transferred to 0.1-cm path-length quartz cuvettes and CD scans were taken using a Jasco J-715 spectropolarimeter. Readings were taken at 37° C., between 190 and 240 nm, with a resolution of 0.1 nm and a bandwidth of 1 nm. […]

Aβ40 = molecular target: T2, Aβ40 (Homo sapiens, UniProt P05067); experiment: mass spectroscopy (MS) assay, binding to Aβ; settings: 200 μM test compound, 20 μM solubilized Aβ40, pH 7.4; ability to bind to Aβ
T2 construct: 200 μM of a test compound and 20 μM of solubilized Aβ40
T2 sequence (P05067 672-711 limits assumed): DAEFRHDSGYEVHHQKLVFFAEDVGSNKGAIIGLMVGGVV
Procedure: Test compounds were purchased from commercial sources or synthesized and screened by thioflavin T fluorescent assay (“ThT assay”). Alternatively, one could screen test compounds by circular dichroism (“CD”), electron microscopy (“EM”), or mass spectroscopy (“MS”) assays.
And in the mass spectroscopy (“MS”) assay, samples were prepared as aqueous solutions containing 20% ethanol, 200 μM of a test compound and 20 μM of solubilized Aβ40. The pH value of each sample was adjusted to 7.4 (±0.2) by addition of 0.1% aqueous sodium hydroxide. The solutions were then analyzed by electrospray ionization mass spectroscopy using a Waters ZQ 4000 mass spectrometer. Samples were introduced by direct infusion at a flow-rate of 25 μL/min within 2 hr. after sample preparation. The source temperature was kept at 70° C. and the cone voltage was 20 V for all the analysis. Data were processed using Masslynx 3.5 software.

T1 sequence (P05067 672-711 limits assumed): as above

| SMILES | EM (Aβ [1]) | CD (Aβ [2]) | MS Assay (Aβ40) |
| --- | --- | --- | --- |
| N=C(N)c1ccc(OCCCCCCCCCCCCOc2ccc(C(=N)N)cc2Br)c(Br)c1 [Compound 76] | + | − | + |
| CC(=N)Nc1ccc(-c2ccc(-c3ccc(NC(C)=N)cc3C)o2)c(C)c1 [Compound 135] |  |  | + |
| CC(C)c1ccc(OCc2ccc(C(=N)N)cc2)cc1 [Compound 70] | + | + | + |
| Cn1c(-c2nc3ccc(C(=N)N)cc3[nH]2)ccc1-c1nc2ccc(C(=N)N)cc2[nH]1 [Compound 103] | + | − | + |
| N=C(N)c1ccc(-c2ccc(-c3nc4ccccc4[nH]3)o2)cc1 [Compound 122] | + | + | + |
| c1cc2[nH]c(-c3ccc4[nH]c(CCc5nc6cc(-c7nc8cc(C9=NCCN9)ccc8[nH]7)ccc6[nH]5)nc4c3)nc2cc1C1=NCCN1 [Compound 87] |  |  | + |
| Br.N=C(N)c1ccc(OCCCCCCCCBr)cc1 [Compound 44] |  |  | + |
| CC(C)NC(=N)c1cccc(COc2ccc3ccc(OCc4cccc(C(=N)NC(C)C)c4)cc3c2)c1 [Compound 91] |  |  | + |
| Cc1cc(C(=N)N)ccc1-c1ccc(-c2ccc(C(=N)N)cc2C)o1 [Compound 118] |  |  | − |
| CC(C)NC(=N)c1ccc(COc2cccc3c(OCc4ccc(C(=N)NC(C)C)cc4)cccc23)cc1 [Compound 61] | + | + | + |
| COc1cc(NC(=N)N)ccc1-c1ccc(-c2ccc(NC(=N)N)cc2OC)o1 [Compound 121] | + | − | + |
| CCc1ccc(CCc2ccc(-c3nc4ccc(C(=N)N)cc4[nH]3)cc2)cc1 [Compound 125] | + | − | + |
| Cc1cc(-c2nc3cc(C(=N)N)ccc3[nH]2)c(C)cc1-c1nc2cc(C(=N)N)ccc2[nH]1 [Compound 73] |  |  | + |
| Cl.N=C(N)c1ccc(OCCCOc2ccc(CCC(=O)O)cc2)cc1 [Compound 40] |  |  | − |
| Cl.N=C(N)c1ccc(OCCCCCCCCC(=O)O)cc1 [Compound 45] |  |  | + |
| COc1cc(C2=NCCN2)ccc1OCCCOc1ccc(C2=NCCN2)cc1OC [Compound 85] |  |  | − |
| N=C(Nc1ccc(OCCCCCOc2ccc(NC(=N)c3ccccc3)cc2)cc1)c1ccccc1 [Compound 134] | − | + | + |
| N=C(N)c1ccc2nc(-c3ccc4cc(-c5nc6ccc(C(=N)N)cc6[nH]5)ccc4c3)[nH]c2c1 [Compound 110] |  |  | + |
| N=C(N)c1ccc2[nH]c(Cc3nc4cc([N+](=O)[O-])ccc4[nH]3)nc2c1 [Compound 80] |  |  | + |
| CC(C)NC(=N)c1ccc(COc2ccc3ccc(OCc4ccc(C(=N)NC(C)C)cc4)cc3c2)cc1 [Compound 90] |  |  | + |

| SMILES | EM (Aβ [1]) | CD (Aβ [2]) | MS Assay (Aβ40) |
| --- | --- | --- | --- |
| N=C(N)c1ccc(-c2cc(-c3cccc(C(=N)N)c3)no2)cc1 [Compound 83] | + | − | + |
| N=C(N)c1ccc(COc2ccc([N+](=O)[O-])cc2)cc1 [Compound 67] |  |  | − |
| N=C(N)c1ccc2nc(-c3ccc(CCc4ccc(-c5nc6ccc(C(=N)N)cc6[nH]5)s4)cc3)[nH]c2c1 [Compound 116] | + | − | + |
| CC(C)NC(=N)c1ccc(OCc2ccc(COc3ccc(C(=N)NC(C)C)cc3)c3ccccc23)cc1 [Compound 62] | + | + | + |
| COC(=O)C(CCOc1ccc(C(=N)NO)cc1)CCOc1ccc(C(=N)NO)cc1 (centres unmarked) [Compound 95] |  |  | + |
| N=C(N)c1cccc(COc2cccc3c(OCc4cccc(C(=N)N)c4)cccc23)c1 [Compound 77] |  |  | + |
| c1cc2c(cc1C1=NCCN1)c1cc(C3=NCCN3)ccc1n2CCCCCn1c2ccc(C3=NCCN3)cc2c2cc(C3=NCCN3)ccc21 [Compound 63] |  |  | + |
| N=C(N)c1ccc(OCCCCCCCCCBr)cc1 [Compound 43] |  |  | + |
| N=C(Nc1ccc(-c2ccc(-c3ccc(NC(=N)c4ccccn4)cc3O)o2)c(O)c1)c1ccccn1 [Compound 136] |  |  | + |
| N=C(N)c1ccc(OCCCCCOc2ccc(-c3nc4cc(C(=N)N)ccc4[nH]3)cc2)cc1 [Compound 94] |  |  | + |
| Cc1c(-c2ccc(C(=N)N)cc2)oc(-c2ccc(C(=N)N)cc2)c1C [Compound 57] |  |  | + |
| N=C(N)c1ccc(NC(=O)CC(=O)Nc2ccc(C(N)N)cc2)cc1 [Compound 98] |  |  | + |
| N=C(N)c1ccc2nc(-c3ccc(Cc4ccc(-c5nc6ccc(C(=N)N)cc6[nH]5)cc4)cc3)[nH]c2c1 [Compound 114] | + | − | + |
| COc1ccc(-c2ccc(-c3ccc(NC(=N)N)cc3)o2)cc1 [Compound 123] | + | − | + |
| COc1ccc2c(c1)[nH]c1cc(C(=N)N)ccc12 [Compound 59] |  |  | + |
| Cc1cc(C(=N)N)ccc1-c1ccc(-c2nc3ccc(C(=N)N)cc3[nH]2)o1 [Compound 131] |  |  | + |
| Cn1c(CCCCc2nc3cc(C(=N)N)ccc3n2C)nc2cc(C(=N)N)ccc21 [Compound 97] |  |  | + |
| Cl.Cl.N=C(N)Cc1ccc(OCCCCCOc2ccc(CC(=N)N)cc2)cc1 [Compound 48] |  |  | + |
| N=C(N)c1ccc2[nH]c(-c3ccc4c(=O)cc(-c5ccccc5)oc4c3)nc2c1 [Compound 119] |  |  | + |
| N=C(N)c1ccc(-c2coc(-c3ccc(C(=N)N)cc3)c2)cc1 [Compound 120] | + | − | + |

| SMILES | EM (Aβ [1]) | CD (Aβ [2]) | MS Assay (Aβ40) |
| --- | --- | --- | --- |
| Cl.N=C(N)c1ccc(OCCCCCCCC(=O)O)cc1 [Compound 42] |  |  | + |
| N=C(N)c1ccc(-c2cc(-c3cccc(C(=N)N)c3)on2)cc1 [Compound 82] |  |  | − |
| COc1ccc(-c2ccc(-c3ccc(C(=N)N)cc3)o2)cc1 [Compound 117] | + | − | + |
| N=C(N)c1ccc2nc(-c3ccc(C4CC4c4ccc(-c5nc6ccc(C(=N)N)cc6[nH]5)cc4)cc3)[nH]c2c1 (centres unmarked) [Compound 115] | + | − | + |
| N=C(N)c1ccc(-c2ccc(-c3nc4cc(C(=N)N)ccc4o3)o2)cc1 [Compound 129] |  |  | + |
| CC(C)NC(=N)c1ccc(-c2ccc(-c3ccc(C(=N)NC(C)C)cc3)o2)cc1 [Compound 100] |  |  | + |
| Cn1c(-c2ccc(C(=N)N)cc2)ccc1-c1ccc(C(=N)N)cc1 [Compound 108] |  |  | + |
| N=C(N)c1ccc2nc(-c3ccc(CCc4ccc(F)cc4)cc3)[nH]c2c1 [Compound 126] |  |  | + |
| Cl.Cl.N=C(N)Nc1ccc(OCCCCCOc2ccc(NC(=N)N)cc2)cc1 [Compound 49] |  |  | + |
| COc1cc(C(=N)N)ccc1OC/C=C\COc1ccc(C(=N)N)cc1OC [Compound 86] |  |  | + |
| N=C(N)c1cccc(OCc2ccccc2)c1 [Compound 68] |  |  | − |
| N=C(N)c1ccc(-c2cc3ccc(C(=N)N)cc3[nH]2)cc1 [Compound 47] |  |  | − |
| N=C(N)c1ccc2nc(-c3ccc(-c4ccc(-c5nc6ccc(C(=N)N)cc6[nH]5)cc4)cc3)[nH]c2c1 [Compound 113] |  |  | + |
| N=C(N)c1cccc(OCCC(O)COc2cccc(C(=N)N)c2)c1 (centres unmarked) [Compound 79] |  |  | + |
| CCC(C)NC(=N)c1ccc(OCCCCCOc2cccc(C3=NC4C=C(C(=N)NC(C)C)C=CC4N3)c2)cc1.Cl.Cl.Cl (centres unmarked) [Compound 96] |  |  | + |
| N=C(N)c1ccc(-c2ccc(-c3ccc(C(=N)N)cc3)o2)cc1 [Compound 99] |  |  | + |
| CCCCNC(=N)c1ccc2nc(-c3ccc(CCc4ccc(-c5nc6ccc(C(=N)NCCCC)cc6[nH]5)cc4)cc3)[nH]c2c1 [Compound 89] |  |  | + |
| N=C(N)c1ccc2nc(-c3ccc(-c4ccc([N+](=O)[O-])cc4)o3)[nH]c2c1 [Compound 111] |  |  | + |
| Cc1nc(-c2ccc(C(=N)N)cc2)cc(-c2ccc(C(=N)N)cc2)n1 [Compound 106] |  |  | + |
| N=C(N)c1ccc2[nH]c(-c3ccccc3)nc2c1 [Compound 81] |  |  | + |
